Where “and” joins values, the source holds several entries; their conditions need not be identical. Equal entries are not always repeated.
Tests used:
ClpP1P2 = ClpP1P2 (Mycobacterium tuberculosis (strain ATCC 25618 / H37Rv), UniProt P9WPC3+P9WPC5); test: in vitro assay to detect presence of AMC directly proportional to the activity of ClpP1P2. GHDDI collaboration.; type: functional
[1] = target: Polyketide synthase Pks13 (Mycobacterium tuberculosis (strain ATCC 25618 / H37Rv), UniProt I6X8D2); test: Mycobacterium tuberculosis Polyketide synthase 13 Thioesterase (PKS13); type: functional
Chain of Polyketide synthase Pks13 (I6X8D2 whole entry): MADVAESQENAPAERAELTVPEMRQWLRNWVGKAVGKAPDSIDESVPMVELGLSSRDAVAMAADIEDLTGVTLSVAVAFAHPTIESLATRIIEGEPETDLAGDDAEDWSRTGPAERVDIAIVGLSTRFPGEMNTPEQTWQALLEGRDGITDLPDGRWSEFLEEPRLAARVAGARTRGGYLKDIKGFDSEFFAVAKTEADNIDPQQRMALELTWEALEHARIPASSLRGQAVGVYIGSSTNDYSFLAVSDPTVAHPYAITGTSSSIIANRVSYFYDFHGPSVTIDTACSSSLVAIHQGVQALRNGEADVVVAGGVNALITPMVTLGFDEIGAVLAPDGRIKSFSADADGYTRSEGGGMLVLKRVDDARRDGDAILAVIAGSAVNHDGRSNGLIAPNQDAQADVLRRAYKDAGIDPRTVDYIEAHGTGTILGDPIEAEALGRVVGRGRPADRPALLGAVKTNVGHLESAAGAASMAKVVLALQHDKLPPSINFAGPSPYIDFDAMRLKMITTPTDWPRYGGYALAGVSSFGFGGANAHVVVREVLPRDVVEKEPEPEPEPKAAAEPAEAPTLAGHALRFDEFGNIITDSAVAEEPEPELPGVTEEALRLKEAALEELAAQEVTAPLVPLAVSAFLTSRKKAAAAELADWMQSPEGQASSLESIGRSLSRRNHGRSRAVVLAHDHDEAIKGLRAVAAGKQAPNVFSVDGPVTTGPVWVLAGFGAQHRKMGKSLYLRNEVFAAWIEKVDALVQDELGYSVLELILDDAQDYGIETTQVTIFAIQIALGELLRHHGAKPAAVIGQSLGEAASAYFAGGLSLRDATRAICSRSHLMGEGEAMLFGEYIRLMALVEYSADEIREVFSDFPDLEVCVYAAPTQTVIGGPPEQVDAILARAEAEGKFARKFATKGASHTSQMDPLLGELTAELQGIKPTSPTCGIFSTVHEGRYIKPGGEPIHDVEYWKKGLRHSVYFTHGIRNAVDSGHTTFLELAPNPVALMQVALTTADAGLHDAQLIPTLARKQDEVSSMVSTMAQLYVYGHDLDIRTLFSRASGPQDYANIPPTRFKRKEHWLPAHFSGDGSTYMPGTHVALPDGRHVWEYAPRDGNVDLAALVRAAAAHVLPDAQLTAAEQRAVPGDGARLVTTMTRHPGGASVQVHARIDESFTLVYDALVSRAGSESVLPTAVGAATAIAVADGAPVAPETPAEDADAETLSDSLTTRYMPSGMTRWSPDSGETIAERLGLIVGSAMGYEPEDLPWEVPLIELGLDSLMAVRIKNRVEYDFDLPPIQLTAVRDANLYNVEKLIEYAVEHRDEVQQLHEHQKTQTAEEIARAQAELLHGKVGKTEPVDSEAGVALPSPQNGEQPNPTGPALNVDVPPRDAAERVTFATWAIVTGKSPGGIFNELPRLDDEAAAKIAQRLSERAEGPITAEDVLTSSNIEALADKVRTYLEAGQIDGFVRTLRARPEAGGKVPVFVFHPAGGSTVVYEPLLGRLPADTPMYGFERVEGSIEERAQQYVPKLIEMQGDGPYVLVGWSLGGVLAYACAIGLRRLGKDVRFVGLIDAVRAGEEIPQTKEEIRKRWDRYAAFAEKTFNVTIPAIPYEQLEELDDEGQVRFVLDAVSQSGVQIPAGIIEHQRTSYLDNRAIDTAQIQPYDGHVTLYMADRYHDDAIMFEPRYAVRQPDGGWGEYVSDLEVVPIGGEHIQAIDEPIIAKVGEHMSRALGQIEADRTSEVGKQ

Plasmodium falciparum = test: Calibr Malaria Delayed Death Assay SOP; type: functional, organism-based; conditions: for IC50: Plasmodium falciparum
[2] = microbe, parasite or virus in culture; conditions: Mycobacterium tuberculosis, 96 h, read-out: pIC50 (converted)
[3] = microbe, parasite or virus in culture; conditions: Mycobacterium tuberculosis, 72 h, read-out: pIC50 (converted)

Chain of ClpP1P2 (P9WPC5 whole entry): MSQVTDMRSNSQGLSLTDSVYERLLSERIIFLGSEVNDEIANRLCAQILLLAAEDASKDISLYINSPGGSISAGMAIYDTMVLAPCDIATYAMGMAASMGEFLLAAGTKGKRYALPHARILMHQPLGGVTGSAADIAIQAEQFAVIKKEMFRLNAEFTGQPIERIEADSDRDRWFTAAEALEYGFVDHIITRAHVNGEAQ
Chain of ClpP1P2 (P9WPC3 whole entry): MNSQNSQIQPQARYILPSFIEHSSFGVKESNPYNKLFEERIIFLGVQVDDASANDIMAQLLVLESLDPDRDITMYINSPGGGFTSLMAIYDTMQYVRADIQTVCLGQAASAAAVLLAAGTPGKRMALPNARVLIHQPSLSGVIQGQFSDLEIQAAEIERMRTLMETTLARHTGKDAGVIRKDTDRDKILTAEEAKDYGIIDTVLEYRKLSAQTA

| SMILES | IC50 (ClpP1P2) [µM] | IC50 [1] | further results |
| --- | --- | --- | --- |
| CN1CCC(NC(=O)c2cc(F)cc(Cl)c2O)C1=O (stereo not given) | > 100 | 40.1 µM and 21.4 µM |  |
| Cc1nn(C)cc1C1=NS(=O)(=O)N(C)C(C(=O)Nc2ccc(Br)cc2)=C1 |  | 28.6 µM and 36.6 µM | pIC50 (Plasmodium falciparum): 6.699; IC50 (Plasmodium falciparum): 0.238 µM |
| Cc1nc(C)n(C2CCCN(C(=O)c3nc(C)n4ccccc34)C2)n1 (stereo not given) | > 100 | 8.78 µM and 12.7 µM |  |
| Cc1csc(CNc2cnc3c(c2)c(C)nn3C)n1 | > 100 | 7.6 µM and 15.2 µM |  |
| COc1ccc(CCC(C)Nc2cccc(SC)c2)cc1 (stereo not given) |  | 23 µM and 23.6 µM | IC50 [2]: 14.3 µM; IC50 [3]: 14.1 µM |
| COc1cnc(N2CCN(C)CC2)nc1-c1ccnn1C | > 100 | 23.7 µM and 24.9 µM |  |
| O=C(O)c1cn(-c2ccccn2)c(=O)c2ccccc12 | > 100 | 8.93 µM and 20.5 µM |  |
| CNC(=O)N1CCc2cc(C(=O)NCC3CC3)c(NC(C)C)nc2CC1 | > 100 | 10.7 µM and 18.7 µM |  |
| COc1ccccc1-c1ccnc2nc(N3CCCCC3)[nH]c(=O)c12 | > 100 | 10.9 µM and 13.9 µM |  |
| COCC(=O)N1CCC(c2cc(C(F)(F)F)n3ccnc3n2)CC1 | > 100 | 28.4 µM and 36.3 µM |  |
| N#Cc1nccnc1N1CCC(CSc2ccccc2)C1 (stereo not given) |  | 18.6 µM and 20.2 µM | IC50 [2]: 4.96 µM; IC50 [3]: 18.9 µM |
| CC(C)Nc1nc2c(cc1C(=O)NCC1CC1)CCN(C)CC2 | > 100 | 30.6 µM and 15.6 µM |  |
| CCOC(=O)N1CCN(C(=O)C2CC(=O)N(c3ccccc3Br)C2)CC1 (stereo not given) |  | 19.4 µM and 22.4 µM | IC50 [2]: 9.89 µM; IC50 [3]: 39.8 µM |
| NS(=O)(=O)Cc1ccc(CNc2cncc(-n3cccn3)n2)cc1 | > 100 | 19.4 µM and > 100 µM |  |
| CNC(=O)c1cc2c(nc1NCC1CC1)CCN(S(C)(=O)=O)CC2 | > 100 | 14.8 µM and 22.2 µM |  |
| Cc1nc(C(=O)N(C)CC(F)(F)C(F)(F)F)c2ccccn12 | > 100 | > 57.5 µM and 27.2 µM |  |
| CC(C)Nc1nc2c(cc1C(=O)NCC1CC1)CCN(CC1CC1)CC2 | > 100 | 14.7 µM and 35.6 µM |  |
| CCc1[nH]c2c(CNc3nc(C)cc(NC)n3)cc(C)cc2c1C |  | > 100 µM | IC50 [2]: 30.7 µM; pIC50 (Plasmodium falciparum): 6.194; IC50 (Plasmodium falciparum): 0.657 µM; IC50 [3]: 23.7 µM |
| CCc1nc(C2CCCN2C(=O)c2nc(C)n3ccccc23)no1 (stereo not given) | > 100 | 8.2 µM and 6.66 µM |  |
| Cc1nc(-c2ccc(Cl)s2)sc1C(=O)NCCCC(N)=O | > 100 | > 100 µM and 15.1 µM |  |
| O=c1ccc2c(n1CC1CCOCC1)CCN(Cc1ccoc1)CC2 | > 100 | > 100 µM |  |
| CC(C)Nc1nc2c(cc1C(=O)NCC1CC1)CCN(S(C)(=O)=O)CC2 | > 100 | 20.5 µM and 23.8 µM |  |

| SMILES | IC50 (ClpP1P2) [µM] | IC50 [1] | further results |
| --- | --- | --- | --- |
| CC(O)CN1CCC(CNCc2c[nH]nc2C(C)(C)C)CC1 (stereo not given) |  | > 100 µM | IC50 [2]: 35.4 µM; IC50 [3]: 45.6 µM |
| Cn1cnc(-c2nc(C(=O)NCCN3CCOCC3)c3ccccn23)c1 | > 100 | 15.6 µM and 34.1 µM |  |
| CC(C)N(CC(N)=O)C(=O)c1cnc(-c2ccc3c(c2)OCO3)s1 | > 100 | 11.1 µM and 12.4 µM |  |
| CCC1(CC)Cc2ccccc2-c2nc(NCCCO)[nH]c(=O)c21 | > 100 | 21.9 µM and 23.7 µM |  |
| CNC(=O)COc1ccc(CNc2cncc(-n3cccn3)n2)cc1 | > 100 | 11.8 µM and > 100 µM |  |
| CNC(=O)c1cc2c(nc1NCC(C)C)CCN(c1ccncn1)CC2 | > 100 | 25.7 µM and 29.5 µM |  |
| Cn1cnc(-c2nc(C(=O)NC3CC3)c3ccccn23)c1 | > 100 | 73.2 µM and 16.1 µM |  |
| Cn1c(Cn2ncc(N3CCCCC3)cc2=O)nc2ccccc21 | > 100 | > 100 µM |  |
| CCn1cc(-c2cc(-c3ccn(C)c3)nc(N)c2C#N)cc1C#N | > 100 | 51.8 µM and 43.6 µM |  |
| COCc1noc(-c2ccc(N(C)Cc3ccc(C)o3)nc2)n1 |  | > 100 µM | IC50 [2]: 18.1 µM |
| CS(=O)(=O)c1ccc(-c2cc(C3CC3)c(C#N)c(N)n2)cc1 | > 100 | 10.4 µM and 11.5 µM |  |
| CCOCCOCc1cccc(CNc2cncc(-n3cccn3)n2)c1 | > 100 | 29.9 µM and 19 µM |  |
| O=c1[nH]c(NC2CCCC2)nc2nccc(-c3ccco3)c12 | > 100 | > 100 µM |  |
| CCc1n[nH]c(C2CN(C(=O)c3nc(C)n4ccccc34)CCO2)n1 (stereo not given) | > 100 | 18.2 µM and 11.7 µM |  |
| CC(CN1CCCC1=O)NC(=O)c1ccc(-c2ccco2)[nH]c1=O (stereo not given) | > 100 | 7.52 µM and 13.7 µM |  |
| O=c1[nH]c(NCCCO)nc2c1C1(CCCC1)Cc1ccccc1-2 | > 100 | 24.5 µM and 29.7 µM |  |
| COc1ccc(CC(C)Nc2cccc(SC)c2)cc1 (stereo not given) |  | 24.5 µM and 22 µM | IC50 [2]: 45.4 µM; IC50 [3]: > 50.1 µM |
| COCc1ccc(CNc2cncc(-n3cccn3)n2)cc1 | > 100 | > 57.5 µM and 18.9 µM |  |
| COC(=O)CNC(=O)c1sc(-c2ccc(Cl)s2)nc1C | > 100 | 22.3 µM and > 100 µM |  |
| CC(=O)N1CCC(c2cc(C(F)(F)F)nc3nccn23)CC1 | > 100 | 16.7 µM and 13.5 µM |  |
| COC(=O)CNC(=O)c1nc(-c2ccccc2OC)c2cnccn12 | > 100 | 79.6 µM and > 100 µM |  |
| Cc1nc(-c2ccc(Cl)s2)sc1C(=O)NC(C)(C)C(N)=O | > 100 | > 100 µM and 21.1 µM |  |

| SMILES | IC50 (ClpP1P2) [µM] | IC50 [1] | further results |
| --- | --- | --- | --- |
| Cc1ccc(C(=O)N(C)Cc2cc(C)on2)cn1 | > 100 | > 100 µM |  |
| CCOc1cc(C(=O)n2cc(C)cn2)cc(OCC)c1OCC |  | 19.9 µM and 11.2 µM | IC50 [2]: > 50.1 µM; IC50 [3]: 29.7 µM |
| CC(C)(CO)CNC(=O)c1cc(-c2cc[nH]n2)n2ccccc12 | > 100 | 22.5 µM and 17.5 µM |  |
| COc1cccc(CN2CCC3(COCc4cnc(N(C)C)nc43)C2)c1 (stereo not given) |  | > 100 µM | IC50 [2]: > 50.1 µM; IC50 [3]: > 50.1 µM |
| CC(C)Nc1nc2c(cc1C(=O)NCC1CC1)CCNCC2 | > 100 | 19.7 µM and 19.3 µM |  |
| Cc1nc2c(Nc3cccc(C#N)c3)nc(N)nc2n1C |  | > 100 µM | IC50 [2]: 4.14 µM; IC50 [3]: 3.75 µM |
| CS(=O)(=O)c1ccc(-c2nc(C(=O)N3CCCC3)n3ccccc23)cc1 | > 100 | 12.3 µM and 12.9 µM |  |
| CNC(=O)c1cc2c(nc1NCC(C)C)CCN(S(C)(=O)=O)CC2 | > 100 | > 100 µM and 16.4 µM |  |
| CN(C)C(=O)c1cnc(-c2ccc3c(c2)OCO3)s1 | > 100 | 11.1 µM and 8.56 µM |  |
| CNC(=O)c1cc2c(nc1NCC1CC1)CCNCC2 | > 100 | 72 µM and 24.7 µM |  |
| O=c1[nH]c2cc3c(cc2cc1CN1CCCC1c1ccccn1)OCO3 (stereo not given) |  | > 100 µM and 70.3 µM |  |
| CNC(=O)c1cc2c(nc1NCC(C)C)CCN(CC1CC1)CC2 | > 100 | 21 µM and 28.8 µM |  |
| CC1=N[C@@]2(CC[C@@H]3CN(S(C)(=O)=O)C[C@@H]32)C(=O)N1CC(C)C |  | > 100 µM |  |
| O=C(c1ccc(-n2ccnc2)cc1)N1CCN(c2cnccn2)CC1 |  | > 100 µM |  |
| COc1ccc2nc(C[C@@H]3C[C@@H](C(C)C)[C@H](CN)C=C3C)[nH]c2n1 |  | > 100 µM |  |
| COc1cc2nc(NCc3cc(C)on3)nc(N)c2cc1OC |  | > 100 µM and 89.5 µM |  |
| Cc1cc(C)c2cc(CNC(C)C)c3nn(C)c(=O)n3c2c1 | > 100 | 17 µM and 18.4 µM |  |
| CCOC1CC2(CCN(C(=O)Cc3ccccn3)CC2)C1 |  | > 100 µM |  |
| COC(=O)C(C)(C)NC(=O)c1cc2sc(N(C)C)nc2s1 |  | 21.9 µM and 10.8 µM |  |
| CNC(=O)c1cc2c(nc1NC(C)C)CCNCC2 | > 100 | 60.3 µM and 25 µM |  |
| CN(C)S(=O)(=O)c1ccc(-c2nc(C#N)c(NC3CC3)o2)o1 | > 100 | 12.2 µM and 13.6 µM |  |
